Experimental data: patent publication US20150374767A1, “Treatment of Cancer” (priority 2013, published 2015)
Where two headings read alike, the source gives them in different places.

Tests used:
Virttu cell panel = assay: combination with HSV1716, DCP cell death, Chou-Talalay analysis, cell panel; type: cell-based, human; details: for number of cell lines tested in which antagonism was detected: drug + HSV1716 moi 0.5 and 0.05, cell death by DCP after 72 hours
HuH7 = type: cell-based, human
SPC111 = assay: combination with HSV1716, Chou-Talalay, SPC111; type: cell-based, human; details: for synergy/antagonism with HSV1716 on cell death (Chou-Talalay): SPC111, HSV1716 moi 0.5 and 0.05, 72 hours
non-sensitive cells = details: read-out: IC50 for non-sensitive cells, previously reported; cited from earlier work
SKOV3 [1] = type: cell-based, human
Virttu cell line panel = assay: cells; type: cell-based; details: Homo sapiens
U87 = type: cell-based, human
Hep3B = type: cell-based, human
HSV1716gfp = assay: GFP expression during infection with HSV1716gfp (drug toxicity to virus); type: cell-based, herpes simplex virus
UVW cells = assay: DCP cell death assay, drug alone, UVW; type: cell-based; details: Homo sapiens, 72 hrs, read-out: IC50 (DCP leakage)
UVW = type: cell-based, human
HCC = details: monotherapy of HCC; cited from earlier work
HCC cell lines = type: cell-based, human
HepG2-luc = type: cell-based, human
Ovcar3 [2] = type: cell-based, human
One58 = type: cell-based, human
CP70 = type: cell-based, human
A431 cells [3] = details: read-out: IC50 in A431 cells, previously reported; cited from earlier work
[4] = system: human gastric carcinoma xenograft; assay: patient-derived human gastric carcinoma xenograft model; set-up: species or system mice; details: mouse, in vivo
Protocol: HSV1716 (Seprehvir) was used in a personalised oncology study. Patient-derived tumour samples were obtained from a gastric carcinoma. There have been no previous in vitro or in vivo pre-clinical studies with Seprehvir in human gastric carcinoma cells/xenografts. Seprehvir was stored at −70° C., and multiple vials were provided to avoid repeated freeze/thawing.
Two groups of 3 mice with gastric carcinoma implants were treated with 2×10^6 pfu Seprehvir by either intratumoural (IT) or intravenous (IV) routes of administration. Control mice (n=3) received no treatment and in these mice the implants grew rapidly and all were sacrificed within 18 days (FIG. 61). For IV injection, Seprehvir was administered on days 0, 3, 10 and 18, at which point the tumors were too large and the mice were sacrificed.
For IT injection of Seprehvir, 2×10^6 pfu was administered on days 0, 3, 10, 18, 21 and 25.
. Control mice (n=3) received no treatment and in these mice the implants grew rapidly and all were sacrificed within 18 days (FIG. 62). […]. A follow-on study with HSV1716 administering more frequent by IV dosing at the higher concentration of 10^7 pfu was performed using the same human gastric carcinoma xenograft model. […].
Groups of 3 mice received IV injection of HSV1716 at 1×10^7 pfu on days 1, 3, 5, 8, 10, 12, 15, 17 and 19. […]

A431 cells [5] = assay: cells; details: Homo sapiens, A-431, 72 h, read-out: IC50 (DCP leakage)
[6] = system: cells expressing low levels of EGFR or ErbB2; details: read-out: IC50, cells expressing low levels of EGFR or ErbB2; cited from earlier work
[7] = system: EGFR- or ErbB2-overexpressing cells; details: read-out: IC50, growth of EGFR- or ErbB2-overexpressing cells; cited from earlier work
A431 = type: cell-based, human
Flt3^D835Y = Flt3^D835Y (Homo sapiens, UniProt P36888, D835Y); details: cited from earlier work
Ovcar3 [8] = assay: DCP cell death assay, drug alone, Ovcar3; type: cell-based; details: Homo sapiens, OVCAR-3; Ovcar3, 72 hrs; read-out: IC50 (DCP leakage)
RCC cell lines = details: read-out: IC50 in RCC cell lines, reported; cited from earlier work
SKOV3 [9] = assay: DCP cell death assay, drug alone, SKOV3; type: cell-based; details: Homo sapiens, SK-OV-3; SKOV3, 72 hrs; read-out: IC50 (DCP leakage)
SPC-111 = assay: DCP cell death assay, drug alone, SPC-111; type: cell-based; details: Homo sapiens; SPC-111, 72 hrs; read-out: IC50 (DCP leakage)
[10] = system: breast carcinoma and melanoma cell lines; details: read-out: IC50 in breast carcinoma and melanoma cell lines, reported; cited from earlier work
IR = IR (Homo sapiens, UniProt P06213); details: cited from earlier work
VEGFR3 = VEGFR3 (Homo sapiens, UniProt P35916); details: cited from earlier work
VEGFR3, sequence (P35916 25-1363): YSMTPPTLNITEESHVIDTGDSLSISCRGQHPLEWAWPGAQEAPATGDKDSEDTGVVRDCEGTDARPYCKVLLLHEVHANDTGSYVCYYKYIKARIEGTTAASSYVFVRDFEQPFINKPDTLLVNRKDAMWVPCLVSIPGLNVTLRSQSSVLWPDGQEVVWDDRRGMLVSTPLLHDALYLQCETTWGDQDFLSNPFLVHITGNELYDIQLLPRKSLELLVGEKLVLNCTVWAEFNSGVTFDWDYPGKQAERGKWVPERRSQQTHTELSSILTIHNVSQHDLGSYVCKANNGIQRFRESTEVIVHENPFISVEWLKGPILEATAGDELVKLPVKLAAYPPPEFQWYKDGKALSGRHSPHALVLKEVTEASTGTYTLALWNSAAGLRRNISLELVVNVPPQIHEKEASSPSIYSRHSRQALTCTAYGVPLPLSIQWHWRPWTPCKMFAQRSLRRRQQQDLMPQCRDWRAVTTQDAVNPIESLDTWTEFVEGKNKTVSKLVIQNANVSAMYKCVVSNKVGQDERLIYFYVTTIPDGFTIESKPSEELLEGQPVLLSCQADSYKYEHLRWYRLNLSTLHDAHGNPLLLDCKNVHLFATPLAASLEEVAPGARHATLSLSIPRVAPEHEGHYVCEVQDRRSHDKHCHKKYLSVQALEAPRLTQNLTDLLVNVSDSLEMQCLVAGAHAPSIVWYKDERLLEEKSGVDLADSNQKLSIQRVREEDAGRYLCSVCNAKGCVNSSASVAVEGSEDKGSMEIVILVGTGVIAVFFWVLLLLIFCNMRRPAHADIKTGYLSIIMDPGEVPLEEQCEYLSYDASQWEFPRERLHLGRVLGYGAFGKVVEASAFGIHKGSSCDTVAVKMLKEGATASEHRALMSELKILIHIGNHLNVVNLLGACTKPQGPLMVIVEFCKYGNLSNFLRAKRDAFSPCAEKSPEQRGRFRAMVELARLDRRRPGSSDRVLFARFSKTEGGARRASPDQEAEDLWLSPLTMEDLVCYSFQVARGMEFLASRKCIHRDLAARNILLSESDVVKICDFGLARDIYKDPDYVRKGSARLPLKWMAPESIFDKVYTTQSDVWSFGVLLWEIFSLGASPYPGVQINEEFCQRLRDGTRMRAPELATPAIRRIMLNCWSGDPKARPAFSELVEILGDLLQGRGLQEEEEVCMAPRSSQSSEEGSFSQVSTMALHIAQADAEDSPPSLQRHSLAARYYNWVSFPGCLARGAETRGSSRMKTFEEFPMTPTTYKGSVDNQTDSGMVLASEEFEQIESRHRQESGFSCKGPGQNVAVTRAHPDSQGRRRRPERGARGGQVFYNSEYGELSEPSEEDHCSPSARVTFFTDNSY

IR, sequence (P06213 28-1382): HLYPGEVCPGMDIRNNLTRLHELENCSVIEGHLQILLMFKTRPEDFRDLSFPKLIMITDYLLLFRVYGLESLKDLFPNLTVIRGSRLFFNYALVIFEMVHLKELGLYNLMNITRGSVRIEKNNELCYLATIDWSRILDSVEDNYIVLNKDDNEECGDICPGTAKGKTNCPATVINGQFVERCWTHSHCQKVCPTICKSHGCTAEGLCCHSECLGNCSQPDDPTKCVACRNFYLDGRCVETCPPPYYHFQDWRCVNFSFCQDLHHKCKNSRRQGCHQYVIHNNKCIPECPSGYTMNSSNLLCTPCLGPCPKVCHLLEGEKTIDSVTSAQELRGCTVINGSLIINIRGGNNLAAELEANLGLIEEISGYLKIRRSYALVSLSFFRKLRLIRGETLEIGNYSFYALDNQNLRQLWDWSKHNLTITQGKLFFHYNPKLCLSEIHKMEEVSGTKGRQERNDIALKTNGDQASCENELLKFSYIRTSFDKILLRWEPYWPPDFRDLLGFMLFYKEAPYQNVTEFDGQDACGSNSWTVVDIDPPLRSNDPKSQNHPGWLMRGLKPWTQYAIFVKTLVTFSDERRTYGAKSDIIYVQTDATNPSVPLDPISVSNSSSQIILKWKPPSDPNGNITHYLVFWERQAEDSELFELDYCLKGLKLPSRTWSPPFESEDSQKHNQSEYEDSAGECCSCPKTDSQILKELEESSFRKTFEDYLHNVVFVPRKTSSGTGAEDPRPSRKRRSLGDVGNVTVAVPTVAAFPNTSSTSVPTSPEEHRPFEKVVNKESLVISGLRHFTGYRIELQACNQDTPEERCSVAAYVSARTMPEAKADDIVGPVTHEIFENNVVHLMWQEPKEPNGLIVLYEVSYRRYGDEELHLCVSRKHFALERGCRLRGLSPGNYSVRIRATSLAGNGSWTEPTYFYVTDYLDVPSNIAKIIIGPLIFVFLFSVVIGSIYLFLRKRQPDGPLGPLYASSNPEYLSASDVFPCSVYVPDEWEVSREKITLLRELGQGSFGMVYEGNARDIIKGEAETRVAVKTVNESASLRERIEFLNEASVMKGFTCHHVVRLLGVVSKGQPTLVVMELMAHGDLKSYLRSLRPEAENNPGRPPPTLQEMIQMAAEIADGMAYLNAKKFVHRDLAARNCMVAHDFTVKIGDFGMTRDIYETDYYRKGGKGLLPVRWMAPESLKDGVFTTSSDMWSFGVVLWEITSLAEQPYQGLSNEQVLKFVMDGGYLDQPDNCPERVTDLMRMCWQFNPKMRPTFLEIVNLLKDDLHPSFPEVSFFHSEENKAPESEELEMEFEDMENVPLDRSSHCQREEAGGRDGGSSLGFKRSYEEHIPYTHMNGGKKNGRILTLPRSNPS

For `C#Cc1cccc(Nc2ncnc3cc(OCCOC)c(OCCOC)cc23)c1` [Erlotinib, N-(3-ethynylphenyl)-6,7-bis(2-methoxyethoxy)quinazolin-4-amine], the “overall synergy/antagonism with HSV1716 on cell death” value (Virttu cell panel) was “mostly antagonistic”, the “number of cell lines tested in which antagonism was detected” value (Virttu cell panel) was 9 out of 10 and the “number of synergistic combinations out of 8” value (“number … of 8” below) (HuH7) was 1/8. The “synergy/antagonism with HSV1716 on cell death (Chou-Talalay)” value (shortened to “synergy/antagonism … (Chou-Talalay)”) (HuH7) was “limited synergy”, the “synergy/antagonism … (Chou-Talalay)” value (SPC111) was “limited synergy” and the “number … of 8” value (SPC111; SPC111, synergy at moi 0.05) was 1/8. For the same compound, the IC50 (non-sensitive cells) was over 10000 nM, the “number … of 8” value (SKOV3 [1]) was 1/8 and the “synergy/antagonism … (Chou-Talalay)” value (SKOV3 [1]) was “limited synergy”. The IC50 (Virttu cell line panel; A-431, all other cell lines (other than A431), 72 hours, read-out: IC50 (DCP leakage), range) was 1000 to 25000 nM and the “synergy/antagonism … (Chou-Talalay)” value (U87) was “synergistic”.
In the case of `CNC(=O)c1cc(Oc2ccc(NC(=O)Nc3ccc(Cl)c(C(F)(F)F)c3)cc2)ccn1` [Sorafenib, 4-[4-[[4-chloro-3-(trifluoromethyl)phenyl]carbamoylamino]phenoxy]-N-methyl-pyridine-2-carboxamide], the “number of cell lines tested with clear synergy signals / synergism with HSV1716” value (Virttu cell panel) is reported as 8/10, the “synergy/antagonism … (Chou-Talalay)” value (HuH7) is reported as “synergistically” and the “synergy/antagonism … (Chou-Talalay)” value (Hep3B) is reported as “synergistically”. For the same compound, the “effect on GFP expression during HSV1716gfp infection” value (shortened to “effect”) (HSV1716gfp; CP70, moi 0.05, 72 hrs) was “more marked inhibitory effect”, the “effect” value (HSV1716gfp; Hep3B, moi 0.05, 72 hrs) was “more marked inhibitory effect” and the “effect” value (HSV1716gfp; HuH7, moi 0.05, 72 hrs) was “small inhibitory effect at the 2.5 μM Sorafenib concentration”. The “effect” value (HSV1716gfp; One58, moi 0.05, 72 hrs) was “more marked inhibitory effect”, the “effect” value (HSV1716gfp; Ovcar3, moi 0.05, 72 hrs) was “more marked inhibitory effect” and the “effect” value (HSV1716gfp; SKOV3, moi 0.05, 72 hrs) was “no effect on GFP expression”. The “effect” value (HSV1716gfp; SPC111, moi 0.05, 72 hrs) was “more marked inhibitory effect”, the “effect” value (HSV1716gfp; U87, moi 0.05, 72 hrs) was “small inhibitory effect at the 2.5 μM Sorafenib concentration” and the “effect” value (HSV1716gfp; UVW, moi 0.05, 72 hrs) was “no effect on GFP expression”. The “effect” value (HSV1716gfp; all cell lines tested, moi 0.5, 72 hrs) was “little effect on GFP expression”, the IC50 (UVW cells) was 100 nM and the “synergy/antagonism … (Chou-Talalay)” value (UVW) was “no synergies”. The “prolongation of median survival and time to progression” value (HCC) was about 3 months, the “reduction of the risk of death during year 1” value (HCC) was 31% and the “synergy with HSV1716 on cell death (Chou-Talalay)” value (HCC cell lines) was “strongly synergistic”. For the same compound, the “synergy/antagonism … (Chou-Talalay)” value (HepG2-luc) was “synergistically”, the “synergy/antagonism … (Chou-Talalay)” value (Ovcar3 [2]) was “synergies occurred” and the “synergy/antagonism … (Chou-Talalay)” value (One58) was “no synergies”. The IC50 (Virttu cell line panel; most/all cell lines of panel, 72 hrs, read-out: IC50 (DCP leakage), range over cell lines) was 1000 to 10000 nM and the “synergy/antagonism … (Chou-Talalay)” value (CP70) was “synergies occurred”.
For `CS(=O)(=O)CCNCc1ccc(-c2ccc3ncnc(Nc4ccc(OCc5cccc(F)c5)c(Cl)c4)c3c2)o1` [Lapatinib, N-[3-chloro-4-[(3-fluorophenyl)methoxy]phenyl]-6-[5-[(2-methylsulfonylethylamino)methyl]-2-furyl]quinazolin-4-amine], the “number of cell lines tested in which antagonism was detected” value (Virttu cell panel) is listed as 8 of the 10, the IC50 (A431 cells [3]) is listed as 160 nM and the “synergy/antagonism … (Chou-Talalay)” value (Hep3B) is listed as “strongly synergistic”. The tumour growth inhibition [4] was “some tumour growth inhibition until day 6”, the IC50 (A431 cells [5]) was 150 nM and the “synergy/antagonism … (Chou-Talalay)” value (UVW) was “strongly synergistic”. For the same compound, the IC50 [6] was 3000 to 12000 nM, the IC50 [7] was 90 to 210 nM and the “number … of 8” value (A431) was 1/8. For the same compound, the “synergy/antagonism … (Chou-Talalay)” value (A431) was “some synergy”, the IC50 (Virttu cell line panel; A-431, 72 h, read-out: IC50 (DCP leakage), range) was 4000 to 30000 nM and the “number … of 8” value (U87) was 2/8. The “synergy/antagonism … (Chou-Talalay)” value (U87) was “some synergy”.
In the case of `S=C(NCc1ccc2c(c1)OCO2)N1CCN(c2ncnc3c2oc2ccccc23)CC1` [Amuvatinib, N-(benzo[d][1,3]dioxol-5-ylmethyl)-4-(benzofuro[3,2-d]pyrimidin-4-yl)piperazine-1-carbothioamide], the IC50 (Flt3^D835Y) is given as 81 nM.
For `Cc1ccc(Nc2nccc(N(C)c3ccc4c(C)n(C)nc4c3)n2)cc1S(N)(=O)=O` [Pazopanib, 5-[[4-[(2,3-Dimethyl-2H-indazol-6-yl)methylamino]-2-pyrimidinyl]amino]-2-methylbenzolsulfonamide], the “number of cell lines tested with clear synergy signals / synergism with HSV1716” value (Virttu cell panel) was 7/9, the “synergy/antagonism … (Chou-Talalay)” value (HuH7) was “limited synergy” and the IC50 (Ovcar3 [8]) was 40000 nM. The “effect” value (HSV1716gfp; CP70, moi 0.5 and 0.05, 72 hrs) was “stimulated GFP expression”, the “effect” value (HSV1716gfp; HepG2-luc, both moi (0.5 and 0.05), 72 hrs) was “little effect on GFP expression” and the “effect” value (HSV1716gfp; HuH7, moi 0.05, 72 hrs) was “more potent inhibitory effect”. The “effect” value (HSV1716gfp; HuH7, moi 0.5, 72 hrs) was “inhibited GFP expression”, the “effect” value (HSV1716gfp; One58, moi 0.05, 72 hrs) was “more potent inhibitory effect” and the “effect” value (HSV1716gfp; One58, moi 0.5, 72 hrs) was “inhibited GFP expression”. The “effect” value (HSV1716gfp; Ovcar3, moi 0.05, 72 hrs) was “more potent inhibitory effect”, the “effect” value (HSV1716gfp; Ovcar3, moi 0.5, 72 hrs) was “inhibited GFP expression” and the “effect” value (HSV1716gfp; SKOV3, moi 0.05, 72 hrs) was “no inhibitory effects”. For the same compound, the “effect” value (HSV1716gfp; SKOV3, moi 0.5, 72 hrs) was “inhibited GFP expression”, the “effect” value (HSV1716gfp; UVW, moi 0.05, 72 hrs) was “no inhibitory effects” and the “effect” value (HSV1716gfp; UVW, moi 0.5, 72 hrs) was “inhibited GFP expression”. The IC50 (RCC cell lines) was 30000 to 60000 nM, the “synergy/antagonism … (Chou-Talalay)” value (SPC111) was “limited synergy” and the IC50 (UVW cells) was 300 nM. For the same compound, the IC50 (SKOV3 [9]) was 40000 nM, the IC50 (SPC-111) was 40000 nM and the “synergy/antagonism … (Chou-Talalay)” value (One58) was “synergistic”. The IC50 (Virttu cell line panel; Hep3B, HuH7, HepG2-luc, CP70, U87 and One58, 72 hrs, read-out: IC50 (DCP leakage), range) was 3000 to 18000 nM, the “synergy/antagonism … (Chou-Talalay)” value (CP70) was “synergistic” and the IC50 [10] was 1000 to 10000 nM.
For `CC(C)(C)c1cc(C=C(C#N)C#N)cc(Br)c1O` [AG-1024, 2-(3-bromo-5-tert-butyl-4-hydroxybenzylidene)malononitrile], the IC50 (IR) is listed as 100 nM.
In the case of `CCn1c(N)c(C(=O)NC)c(=O)c2ccc(C#C[C@@](C)(O)COC)nc21` [SAR131675, (R)-2-amino-1-ethyl-7-(3-hydroxy-4-methoxy-3-methylbut-1-ynyl)-N-methyl-4-oxo-1,4-dihydro-1,8-naphthyridine-3-carboxamide], the IC50 (VEGFR3) is listed as 20 nM.
